Data reported in ChEMBL document CHEMBL1201862, “PubChem BioAssay data set” (2004).
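The compound was tested at five concentrations on cells cultured in 96-well plates, with a 48-hour exposure period. Abbreviation: GI50, concentration required for 50% inhibition of growth.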 Calls of active or inactive are those of the source. Cut-off read from the data, not from the text of the source: active = GI50 up to about 1.1 µM and inactive = higher.

Experiments:
Assay in all cases: NCI anticancer screen, dose series, 48 h
SNB-78 = tested on: SNB-78
M14 = tested on: M14
SN12C = tested on: SN12C
IGROV-1 = tested on: IGROV-1
K562 = tested on: K562
NCI-H460 = tested on: NCI-H460
SF-295 = tested on: SF-295
NCI-H226 = tested on: NCI-H226
UACC-257 = tested on: UACC-257
UO-31 = tested on: UO-31
RPMI-8226 = tested on: RPMI-8226
786-0 = tested on: 786-0
TK-10 = tested on: TK-10
SK-OV-3 = tested on: SK-OV-3
OVCAR-3 = tested on: OVCAR-3
SK-MEL-2 = tested on: SK-MEL-2
CCRF-CEM = tested on: CCRF-CEM

Measured: GI50

C/C(CN1C(=O)c2ccccc2C1=O)=N\NS(C)(=O)=O
inactive: SNB-78 > 100 µM | M14 > 100 µM | SN12C > 100 µM | IGROV-1 > 100 µM | K562 > 100 µM | NCI-H460 > 100 µM | SF-295 > 100 µM | NCI-H226 > 100 µM | UACC-257 > 100 µM | UO-31 > 100 µM | RPMI-8226 > 100 µM | 786-0 > 100 µM | TK-10 > 100 µM | SK-OV-3 > 100 µM | OVCAR-3 > 100 µM | SK-MEL-2 > 100 µM | CCRF-CEM > 100 µM

C[N+](C)=c1nc(N2CCc3ccccc3C2)ss1.[O-][Cl+3]([O-])([O-])[O-]
inactive: SNB-78 > 100 µM | M14 > 100 µM | SN12C > 100 µM | IGROV-1 > 100 µM | K562 > 100 µM | NCI-H460 > 100 µM | NCI-H226 > 100 µM | UACC-257 > 100 µM | UO-31 > 100 µM | RPMI-8226 69.8 µM | 786-0 > 100 µM | TK-10 > 100 µM | SK-OV-3 > 100 µM | OVCAR-3 82 µM | SK-MEL-2 > 100 µM | CCRF-CEM 82.8 µM

COC1=CC(=O)C2C(C1=O)C(c1ccc(Cl)cc1)[C@@H]2C (some centres not stated)
inactive: SNB-78 36.8 µM | M14 25.7 µM | IGROV-1 55.3 µM | K562 28.3 µM | NCI-H460 30.1 µM | SF-295 93.1 µM | NCI-H226 22.1 µM | UACC-257 20.6 µM | UO-31 19.7 µM | RPMI-8226 39.7 µM | 786-0 24.4 µM | TK-10 38.7 µM | SK-OV-3 > 100 µM | OVCAR-3 34.6 µM | SK-MEL-2 37.4 µM | CCRF-CEM 29.4 µM

CCCCCCCCCC(=O)Oc1cccc2onc(C)c12
inactive: SNB-78 > 100 µM | M14 > 100 µM | SN12C > 100 µM | IGROV-1 > 100 µM | K562 73.1 µM | NCI-H460 > 100 µM | SF-295 > 100 µM | NCI-H226 88.9 µM | UACC-257 > 100 µM | UO-31 40.8 µM | RPMI-8226 > 100 µM | 786-0 > 100 µM | TK-10 > 100 µM | SK-OV-3 > 100 µM | OVCAR-3 > 100 µM | SK-MEL-2 > 100 µM | CCRF-CEM > 100 µM

CCOC(=O)C1Oc2ccc([N+](=O)[O-])c3c2C1(O)CCC3 (configuration not stated)
inactive: SNB-78 > 100 µM | M14 > 100 µM | SN12C > 100 µM | IGROV-1 > 100 µM | K562 > 100 µM | NCI-H460 33.4 µM | SF-295 > 100 µM | NCI-H226 > 100 µM | UACC-257 > 100 µM | UO-31 47.2 µM | RPMI-8226 > 100 µM | 786-0 > 100 µM | TK-10 > 100 µM | SK-OV-3 > 100 µM | OVCAR-3 > 100 µM | SK-MEL-2 > 100 µM | CCRF-CEM > 100 µM

O=NN(CCCl)C(=O)N[C@H]1CC[C@@H](C(=O)O)CC1
inactive: SNB-78 > 100 µM | M14 > 100 µM | SN12C > 100 µM | IGROV-1 > 100 µM | K562 91 µM | NCI-H460 49.3 µM | SF-295 52.6 µM | NCI-H226 > 100 µM | UACC-257 > 100 µM | UO-31 > 100 µM | RPMI-8226 46.3 µM | 786-0 40.7 µM | TK-10 > 100 µM | SK-OV-3 > 100 µM | OVCAR-3 > 100 µM | SK-MEL-2 > 100 µM | CCRF-CEM 36.6 µM

COc1ccc(/C=C\c2cc(OC)c(OC(C)=O)c(OC)c2)cc1
inactive: SNB-78 25.5 µM | M14 18.2 µM | SN12C 7.21 µM | IGROV-1 29.7 µM | K562 2.03 µM | NCI-H460 2.49 µM | NCI-H226 27.4 µM | UACC-257 17.3 µM | UO-31 15.7 µM | RPMI-8226 12.8 µM | 786-0 14.9 µM | SK-OV-3 51.8 µM | OVCAR-3 20.8 µM | SK-MEL-2 7.53 µM | CCRF-CEM 5.46 µM

N#C/C(=C/c1cccc(Oc2ccccc2)c1)c1ccccc1
inactive: SNB-78 > 100 µM | M14 > 100 µM | SN12C > 100 µM | IGROV-1 > 100 µM | K562 36.7 µM | NCI-H460 > 100 µM | SF-295 4.95 µM | NCI-H226 > 100 µM | UACC-257 > 100 µM | UO-31 > 100 µM | RPMI-8226 > 100 µM | 786-0 > 100 µM | TK-10 > 100 µM | SK-OV-3 > 100 µM | SK-MEL-2 66.5 µM | CCRF-CEM > 100 µM

CC1=C(C#N)C(N)=C2C(C)=C(C#N)C(N)=C12
inactive: SNB-78 > 100 µM | M14 > 100 µM | SN12C > 100 µM | IGROV-1 > 100 µM | K562 > 100 µM | NCI-H460 > 100 µM | SF-295 > 100 µM | NCI-H226 > 100 µM | UACC-257 > 100 µM | UO-31 > 100 µM | RPMI-8226 > 100 µM | 786-0 > 100 µM | TK-10 > 100 µM | SK-OV-3 > 100 µM | OVCAR-3 > 100 µM | CCRF-CEM > 100 µM
